Measured values published in US20140213558A1, “TREATMENT OF INFLAMMATORY DISEASE OR DISORDER AND COMPOSITIONS THEREFOR” (CREDE OILS (PTY) LTD, priority 2011, published 2014).

Test: Comparison of pure TQ with Nigella sativa oil
Details: administration of pure TQ
Protocol: Nevertheless, some embodiments of the invention may include N. sativa oil and/or its essential oil, either as the sole or primary active or in combination with EPA and/or GLA. […] Thus, N. sativa essential oil may provide a therapeutic or prophylactic effect in some embodiments of the invention, particularly in those embodiments in which one or more other actives (e.g., EPA, GLA, etc.) are also administered. Similarly, embodiments of the invention may include derivatives and/or precursors of TQ, including polymers of TQ.

CC1=CC(=O)C(C(C)C)=CC1=O [TQ, 2-isopropyl-5-methylbenzo-1,4-quinone]
effectiveness relative to Nigella sativa oil: more effective than the administration of Nigella sativa oil
